This experiment concerns the target ATM (Homo sapiens (Human), UniProt Q13315). The experiment in a line: Caliper mobility shift assay for ATM. It counts as biochemical. Conditions: read-out: IC50 of inhibitory activity on ATM kinase. The procedure:
1.2 Determination of the Inhibitory Activities of Compounds on ATM: Caliper Mobility Shift Assay for ATM
To a 96-well plate, 98 μL of DMSO and 2 μL of the 10 mM stock solution were added and mixed evenly so that the concentration of the solution was 200 μM.
Based on the inhibitory rates of the compound at different concentrations, IC50 was calculated according to the formula: Y=Bottom+(Top−Bottom)/(1+(IC50/X)^HillSlope).

The term IC50 denotes the concentration at which inhibition is half-maximal.

Sequence of ATM (Q13315 whole entry): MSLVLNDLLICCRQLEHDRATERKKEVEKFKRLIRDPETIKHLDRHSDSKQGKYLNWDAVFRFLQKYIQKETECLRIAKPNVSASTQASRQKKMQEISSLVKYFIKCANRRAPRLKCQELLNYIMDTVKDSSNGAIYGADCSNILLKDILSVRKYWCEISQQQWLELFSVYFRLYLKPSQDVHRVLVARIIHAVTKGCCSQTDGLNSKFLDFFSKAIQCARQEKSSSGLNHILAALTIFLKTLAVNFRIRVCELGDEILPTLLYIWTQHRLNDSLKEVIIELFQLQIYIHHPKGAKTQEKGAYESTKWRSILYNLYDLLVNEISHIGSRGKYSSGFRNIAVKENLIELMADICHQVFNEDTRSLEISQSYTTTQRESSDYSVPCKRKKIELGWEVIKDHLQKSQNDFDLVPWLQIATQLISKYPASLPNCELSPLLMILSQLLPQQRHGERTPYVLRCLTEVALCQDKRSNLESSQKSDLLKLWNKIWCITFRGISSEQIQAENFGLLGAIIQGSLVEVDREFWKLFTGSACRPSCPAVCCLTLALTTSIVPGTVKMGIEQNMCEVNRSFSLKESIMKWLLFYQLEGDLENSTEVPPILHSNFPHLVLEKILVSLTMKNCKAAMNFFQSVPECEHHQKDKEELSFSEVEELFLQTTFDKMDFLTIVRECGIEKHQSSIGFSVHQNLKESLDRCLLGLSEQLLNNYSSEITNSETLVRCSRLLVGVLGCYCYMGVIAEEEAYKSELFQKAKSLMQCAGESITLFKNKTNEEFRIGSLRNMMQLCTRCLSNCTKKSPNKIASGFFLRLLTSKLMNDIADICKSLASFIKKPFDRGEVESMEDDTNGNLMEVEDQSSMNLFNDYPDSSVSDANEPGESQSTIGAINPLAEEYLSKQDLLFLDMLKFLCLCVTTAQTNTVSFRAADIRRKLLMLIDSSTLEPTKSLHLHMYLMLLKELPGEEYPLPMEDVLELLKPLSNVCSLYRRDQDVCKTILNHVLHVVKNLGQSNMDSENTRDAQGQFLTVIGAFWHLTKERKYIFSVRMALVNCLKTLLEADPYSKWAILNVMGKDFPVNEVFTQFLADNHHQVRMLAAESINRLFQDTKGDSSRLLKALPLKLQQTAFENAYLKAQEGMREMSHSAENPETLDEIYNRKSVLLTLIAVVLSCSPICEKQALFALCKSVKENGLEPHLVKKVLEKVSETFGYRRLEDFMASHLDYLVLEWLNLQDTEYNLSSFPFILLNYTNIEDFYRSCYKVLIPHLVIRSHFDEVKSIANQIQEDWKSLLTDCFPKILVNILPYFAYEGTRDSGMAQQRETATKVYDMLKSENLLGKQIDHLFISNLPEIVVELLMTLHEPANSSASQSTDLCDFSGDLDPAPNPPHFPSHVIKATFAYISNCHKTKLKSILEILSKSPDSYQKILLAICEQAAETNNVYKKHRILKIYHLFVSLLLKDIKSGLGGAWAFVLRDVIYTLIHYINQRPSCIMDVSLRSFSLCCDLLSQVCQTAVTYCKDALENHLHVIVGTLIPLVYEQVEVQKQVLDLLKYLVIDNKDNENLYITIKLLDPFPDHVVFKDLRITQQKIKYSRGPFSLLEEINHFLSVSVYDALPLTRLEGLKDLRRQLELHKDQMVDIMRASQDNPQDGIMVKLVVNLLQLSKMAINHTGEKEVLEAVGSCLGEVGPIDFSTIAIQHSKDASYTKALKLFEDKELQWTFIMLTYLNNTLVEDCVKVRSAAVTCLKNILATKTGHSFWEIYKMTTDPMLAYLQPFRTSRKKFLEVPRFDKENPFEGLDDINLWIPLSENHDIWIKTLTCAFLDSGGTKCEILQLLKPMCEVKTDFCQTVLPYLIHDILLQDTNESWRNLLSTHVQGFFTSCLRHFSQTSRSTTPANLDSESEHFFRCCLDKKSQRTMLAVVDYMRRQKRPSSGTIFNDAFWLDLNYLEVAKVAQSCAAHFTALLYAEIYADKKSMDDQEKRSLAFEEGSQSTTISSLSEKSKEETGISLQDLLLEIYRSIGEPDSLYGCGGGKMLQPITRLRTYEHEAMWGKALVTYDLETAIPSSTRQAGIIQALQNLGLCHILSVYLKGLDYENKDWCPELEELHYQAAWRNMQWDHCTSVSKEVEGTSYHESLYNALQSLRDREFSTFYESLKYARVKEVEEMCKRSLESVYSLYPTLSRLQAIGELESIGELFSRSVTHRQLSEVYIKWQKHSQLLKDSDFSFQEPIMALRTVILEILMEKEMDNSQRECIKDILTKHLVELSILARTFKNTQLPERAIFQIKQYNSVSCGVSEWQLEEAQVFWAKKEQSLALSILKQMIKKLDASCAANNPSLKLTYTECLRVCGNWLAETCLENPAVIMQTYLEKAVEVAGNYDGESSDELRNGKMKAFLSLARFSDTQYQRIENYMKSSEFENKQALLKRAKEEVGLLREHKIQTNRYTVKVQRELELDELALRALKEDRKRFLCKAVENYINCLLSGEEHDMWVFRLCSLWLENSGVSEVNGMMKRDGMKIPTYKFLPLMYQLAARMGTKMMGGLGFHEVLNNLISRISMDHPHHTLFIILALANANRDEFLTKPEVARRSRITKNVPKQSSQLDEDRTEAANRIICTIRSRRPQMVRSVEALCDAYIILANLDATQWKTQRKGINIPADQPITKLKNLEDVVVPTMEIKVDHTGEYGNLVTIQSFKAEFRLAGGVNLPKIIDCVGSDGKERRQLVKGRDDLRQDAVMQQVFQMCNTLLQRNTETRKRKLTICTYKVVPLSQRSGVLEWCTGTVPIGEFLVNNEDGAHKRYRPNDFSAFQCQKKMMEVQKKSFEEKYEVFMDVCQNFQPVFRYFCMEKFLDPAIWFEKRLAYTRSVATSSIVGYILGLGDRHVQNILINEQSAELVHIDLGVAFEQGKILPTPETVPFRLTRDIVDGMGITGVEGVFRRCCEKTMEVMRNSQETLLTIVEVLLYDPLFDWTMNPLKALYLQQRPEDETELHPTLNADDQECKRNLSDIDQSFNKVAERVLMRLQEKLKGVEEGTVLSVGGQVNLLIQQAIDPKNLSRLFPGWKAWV

In the case of `Cn1c(=O)n2c3c4c(c(-c5ccc(OCCCN6CC[C@H](F)C6)nc5)c(F)cc4ncc31)OCC21CCC1` [Example A-161, (S)-6-fluoro-7-(6-(3-(3-fluoropyrrolidin-1-yl)propoxy)pyridin-3-yl)-2-methyl-2,9-dihydro-1H-spiro[8-oxa-2,4,10a-triazanaphtho[2,1,8-cde]azulene-10,1′-cyclobutan]-1-one], the IC50 came out at 0.32 nM.
As to `C[C@H]1COc2c(-c3ccc(N4CCC(N(C)C)CC4)nc3)c(F)cc3ncc4c(c23)n1c(=O)n4C` [Example A-159, (S)-7-(6-(4-(dimethylamino)piperidin-1-yl)pyridin-3-yl)-6-fluoro-2,10-dimethyl-9,10-dihydro-8-oxa-2,4,10a-triazanaphtho[2,1,8-cde]azulen-1(2H)-one], the IC50 is 0.92 nM.
The result for `Cn1c(=O)n2c3c4c(c(-c5ccc(OCCCN6CCCCC6)nc5)ccc4ncc31)OCC2(C)C` [Example A-67, 2,10,10-trimethyl-7-(6-(3-(piperidin-1-yl)propoxy)pyridin-3-yl)-9,10-dihydro-8-oxa-2,4,10a-triazanaphtho[2,1,8-cde]azulen-1(2H)-one] reads 0.26 nM; that for `CC[C@H]1COc2c(-c3ccc(OCCCN4CCCCC4)nc3)c(F)cc3ncc4c(c23)n1c(=O)n4C` [Example A-23, (S)-10-ethyl-6-fluoro-2-methyl-7-(6-(3-(piperidin-1-yl)propoxy)pyridin-3-yl)-9,10-dihydro-8-oxa-2,4,10a-triazanaphtho[2,1,8-cde]azulen-1(2H)-one], 0.42 nM; that for `C[C@H]1COc2c(-c3ccc(OCCCN4CCC5(CC4)COC5)nc3)c(F)cc3ncc4c(c23)n1c(=O)n4C` [Example A-171, (S)-7-(6-(3-(2-oxa-7-azaspiro[3.5]nonan-7-yl)propoxy)pyridin-3-yl)-6-fluoro-2,10-dimethyl-9,10-dihydro-8-oxa-2,4,10a-triazanaphtho[2,1,8-cde]azulen-1(2H)-one], 0.42 nM.
The result for `Cn1c(=O)n2c3c4c(c(-c5ccc(OCCCN6CCCCC6)nc5)ccc4ncc31)NCC21CCC1` [Example A-202, 2-methyl-7-(6-(3-(piperidin-1-yl)propoxy)pyridin-3-yl)-8,9-dihydrospiro[2,4,8,10a-tetraazanaphtho[2,1,8-cde]azulene-10,1′-cyclobutan]-1(2H)-one] reads 0.23 nM; that for `CC(C)C[C@H]1COc2c(-c3ccc(OCCCN4CCCCC4)nc3)c(F)cc3ncc4c(c23)n1c(=O)n4C` [Example A-9, (S)-6-fluoro-10-isobutyl-2-methyl-7-(6-(3-(piperidin-1-yl)propoxy)pyridin-3-yl)-9,10-dihydro-8-oxa-2,4,10a-triazanaphtho[2,1,8-cde]azulen-1(2H)-one], 0.2 nM.
As to `CC[C@H]1COc2c(-c3ccc(OCCCN(C)C)nc3)ccc3ncc4c(c23)n1c(=O)n4C` [Example A-189, (S)-7-(6-(3-(dimethylamino)propoxy)pyridin-3-yl)-10-ethyl-2-methyl-9,10-dihydro-8-oxa-2,4,10a-triazanaphtho[2,1,8-cde]azulen-1(2H)-one], the IC50 was found to be 0.38 nM.
The result for `C[C@@H]1COc2c(-c3ccc(OCCCN(C)C)nc3)ccc3ncc4c(c23)n1c(=O)n4C` [Example A-181, (R)-7-(6-(3-(dimethylamino)propoxy)pyridin-3-yl)-2,10-dimethyl-9,10-dihydro-8-oxa-2,4,10a-triazanaphtho[2,1,8-cde]azulen-1(2H)-one] reads 0.72 nM; that for `CC[C@@H]1COc2c(-c3ccc(OCCCN4CCCCC4)nc3)ccc3ncc4c(c23)n1c(=O)n4C` [Example A-187, (R)-10-ethyl-2-methyl-7-(6-(3-(piperidin-1-yl)propoxy)pyridin-3-yl)-9,10-dihydro-8-oxa-2,4,10a-triazanaphtho[2,1,8-cde]azulen-1(2H)-one], 0.22 nM.
The result for `COCC1COc2c(-c3ccc(OCCCN4CCCCC4)nc3)c(F)cc3ncc4c(c23)n1c(=O)n4C` (centres unmarked) [Example A-49, 6-fluoro-10-(methoxymethyl)-2-methyl-7-(6-(3-(piperidin-1-yl)propoxy)pyridin-3-yl)-9,10-dihydro-8-oxa-2,4,10a-triazanaphtho[2,1,8-cde]azulen-1(2H)-one] reads 0.86 nM.
The value for `C[C@H]1COc2c(-c3ccc(OCCCN4CCCCC4)nc3)c(F)cc3ncc4c(c23)n1c(=O)n4C` [Example A-1, (S)-6-fluoro-2,10-dimethyl-7-(6-(3-(piperidin-1-yl)propoxy)pyridin-3-yl)-9,10-dihydro-8-oxa-2,4,10a-triazanaphtho[2,1,8-cde]azulen-1(2H)-one] was 0.79 nM; that for `Cn1c(=O)n2c3c4c(c(-c5ccc(OCCCN6CCCCC6)nc5)c(F)cc4ncc31)OCCC2` [Compound A-154] was 0.71 nM.
Consider `CC1CCN(CCCOc2ccc(-c3ccc4ncc5c6c4c3OC[C@H](C)n6c(=O)n5C)cn2)CC1` [Example A-208, (S)-2,10-dimethyl-7-(6-(3-(4-methylpiperidin-1-yl)propoxy)pyridin-3-yl)-9,10-dihydro-8-oxa-2,4,10a-triazanaphtho[2,1,8-cde]azulen-1(2H)-one], for which the IC50 amounted to 0.29 nM.
As to `CN(C)CCCOc1ccc(-c2ccc3ncc4c5c3c2OCC2(CCC2)n5c(=O)n4C)cn1` [Example A-185, 7-(6-(3-(dimethylamino)propoxy)pyridin-3-yl)-2-methyl-2,9-dihydro-1H-spiro[8-oxa-2,4,10a-triazanaphtho[2,1,8-cde]azulene-10,1′-cyclobutan]-1-one], the IC50 worked out at 0.25 nM.
The result for `CN(C)CCCOc1ccc(-c2ccc3ncc4c5c3c2OCC(C)(C)n5c(=O)n4C)cn1` [Example A-180, 7-(6-(3-(dimethylamino)propoxy)pyridin-3-yl)-2,10,10-trimethyl-9,10-dihydro-8-oxa-2,4,10a-triazanaphtho[2,1,8-cde]azulen-1(2H)-one] reads 0.26 nM.
Take `C[C@@H]1CNc2c(-c3ccc(OCCCN4CCCCC4)nc3)c(F)cc3ncc4c(c23)n1c(=O)n4C` [Example A-195, (R)-6-fluoro-2,10-dimethyl-7-(6-(3-(piperidin-1-yl)propoxy)pyridin-3-yl)-2,8,9,10-tetrahydro-1H-2,4,8,10a-tetraazanaphtho[2,1,8-cde]azulen-1(2H)-one]: the 50% inhibitory concentration (IC50) is 0.41 nM.
The value for `CC[C@@H]1COc2c(-c3ccc(OCCCN(C)C)nc3)ccc3ncc4c(c23)n1c(=O)n4C` [Example A-188, (R)-7-(6-(3-(dimethylamino)propoxy)pyridin-3-yl)-10-ethyl-2-methyl-9,10-dihydro-8-oxa-2,4,10a-triazanaphtho[2,1,8-cde]azulen-1(2H)-one] was 0.4 nM.
The result for `Cn1c(=O)n2c3c4c(c(-c5ccc(OCCCN6CCCCC6)nc5)c(F)cc4ncc31)OCC2C1CC1` (centres unmarked) [Example A-27, 10-cyclopropyl-6-fluoro-2-methyl-7-(6-(3-(piperidin-1-yl)propoxy)pyridin-3-yl)-9,10-dihydro-8-oxa-2,4,10a-triazanaphtho[2,1,8-cde]azulen-1(2H)-one] reads 0.28 nM.
For the compound `CN(C)CCCOc1ccc(-c2ccc3ncc4c5c3c2OCC2(CC2)n5c(=O)n4C)cn1` [Example A-179, 7-(6-(3-(dimethylamino)propoxy)pyridin-3-yl)-2-methyl-2,9-dihydro-1H-spiro[8-oxa-2,4,10a-triazanaphtho[2,1,8-cde]azulene-10,1′-cyclopropan]-1-one], the IC50 stood at 0.37 nM.

For the origin of these results see patent US20240294545A1 (CSPC Zhongqi Pharmaceutical Technology (Shijiazhuang) Co., …, priority 2020, published 2024).
